This is an account of results in BindingDB's records for doi:10.1016/j.bmcl.2019.06.049 (Dongguk University, 2019).

pIC50: −log10 of the molar value.

The assay concerns the target T1, Nuclear factor erythroid 2-related factor 2 (Homo sapiens, UniProt Q16236).
T1 sequence (Q16236 whole entry): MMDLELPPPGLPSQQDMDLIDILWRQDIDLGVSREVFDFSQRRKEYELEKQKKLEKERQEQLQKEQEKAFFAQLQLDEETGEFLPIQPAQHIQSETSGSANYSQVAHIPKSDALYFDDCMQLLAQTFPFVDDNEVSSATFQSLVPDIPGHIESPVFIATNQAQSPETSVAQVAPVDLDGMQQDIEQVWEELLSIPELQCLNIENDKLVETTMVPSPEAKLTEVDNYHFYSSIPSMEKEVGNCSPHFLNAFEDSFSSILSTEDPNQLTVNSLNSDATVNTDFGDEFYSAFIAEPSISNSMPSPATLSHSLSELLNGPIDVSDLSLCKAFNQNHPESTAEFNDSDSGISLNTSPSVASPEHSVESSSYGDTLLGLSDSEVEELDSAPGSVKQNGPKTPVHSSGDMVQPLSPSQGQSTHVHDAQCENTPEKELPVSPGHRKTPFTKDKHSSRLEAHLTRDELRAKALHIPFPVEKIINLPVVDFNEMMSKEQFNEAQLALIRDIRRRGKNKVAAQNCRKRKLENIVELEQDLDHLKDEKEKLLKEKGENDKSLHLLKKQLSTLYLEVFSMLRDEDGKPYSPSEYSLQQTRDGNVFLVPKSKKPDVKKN
The assay is described as follows: Inhibition of NRF2 in human MDA-MB-231 cells harboring ARE-GFP-Luc assessed as reduction in ARE-luciferase activity after 16 hrs by firefly luciferase reporter gene assay. For orientation: Reporter assays use an easily measured gene product as a stand-in for the process of interest.

One may read the pIC50 as the negative decadic logarithm of the IC50, by convention in mol/L. For the compound `COC(=O)[C@@]12OC[C@]34[C@H]([C@@H](O)[C@@H]1O)[C@@]1(C)CC(=O)C(O)=C(C)[C@@H]1C[C@H]3OC(=O)[C@H](OC(=O)C=C(C)C)[C@@H]24`, the pIC50 was 7.54.
